“And” between values parts separate entries of the source, which are not always exact repeats. Identical values can stand only once. Like-named read-outs stand apart in the source and are kept apart here. Each block holds one compound with its values, some of them ahead of it.
Columns and labels:
[1] = test system: paclitaxel-induced CIPN in C57/BL mice; experiment: Prevention of neuropathic pain in paclitaxel mouse model of CIPN, paw withdrawal threshold (von Frey); assay type: in vivo; conditions: day 6 after first paclitaxel (10 mg/kg ip daily x5); PS 8% hydrogel topically to both hind paws 3 times a day for 7 days, started 2 days before paclitaxel
Protocol: In order to establish CIPN, paclitaxel is administered at 10 mg/kg intraperitoneally into C57/BL mice. […] This dosing regimen of paclitaxel produces pain associated with CIPN with time courses that are similar to those of pain after paclitaxel administration in cancer patients.
The first doses were administered 2 days prior to the first administration of paclitaxel.
In particular, a simplified up-down method for estimating paw withdrawal threshold (PWT) using von Frey filaments was used (as described in Bonin et al., Molecular Pain (2014); 10(26):1-10)). The results of the PWT test are expressed as force applied (gm).

[2] = test system: paclitaxel-induced CIPN in mice; experiment: Cold allodynia (acetone test) in paclitaxel-induced CIPN; assay type: in vivo, mouse
Protocol: For cold allodynia, mice with paclitaxel-induced CIPN were treated with PS 5% or vehicle for 15 days after the induction of CIPN. The acetone test was used. Briefly, acetone was applied onto the plantar surface of each hind paw. The time each mouse spent licking, lifting, and/or shaking the hind paw recorded over 60 seconds was the score for cold allodynia. Measurements were performed on day-8 (before the first paclitaxel injection), the day of starting treatment (day 0) and then on day 15.

[3] = test system: paclitaxel-induced CIPN in C57BL/6J mice; experiment: Treatment of paclitaxel-induced CIPN, mechanical allodynia (von Frey test)
Protocol: Adult male C57BL/6J mice, 8 weeks of age at the beginning of the experiments and weighing 20-30 g, were purchased from The Jackson Laboratory (Bar Harbor, ME). Mice were housed in an AAALAC-accredited facility in groups of four. Food and water were available ad libitum. The mice in each cage were randomly allocated to treatment groups. All studies were conducted by experimenters blinded to the identity of the treatment groups. Experiments were performed during the light cycle (7:00 am to 7:00 pm) and animals were euthanized with CO2 asphyxiation. Studies were approved by the relevant Institutional Animal Care and Use Committee and followed the National Institutes of Health Guidelines for the Care and Use of Laboratory Animals. Animal studies are reported in compliance with the ARRIVE guidelines.
CIPN was induced in mice with three different chemotherapeutic compounds using established protocols (Carozzi et al., Exp Neurol (2010); 226:301-309; Currie et al., PLOS Biol (2019); 17:e3000243; Eldridge et al., Toxicol Pathol (2020); 48:190-201). Each of the three chemotherapeutic compounds were prepared and dosed as follows. • Paclitaxel: paclitaxel (purchased from MilliporeSigma (St. Louis, MO)) was dissolved in a mixture of 1 volume ethanol/1 volume Cremophor EL (EMD Millipore Corp, Burlington, MA)/18 volumes distilled water. Paclitaxel was administered as four intraperitoneal injections of 8 mg/kg paclitaxel (in a volume of 1 ml/100 g body weight) every other day, resulting in a cumulative dose of 32 mg/kg. • Oxaliplatin: Oxaliplatin was dissolved in ddH2O.
Mechanical allodynia was measured at the time points recorded in the figures.
Mechanical allodynia thresholds were determined using von Frey filaments according to an established method (Chaplan et al., J Neurosci Methods (1994); 53:55-63; Bagdas et al., Biochem Pharmacol (2015); 97:590-600). Briefly, mice were placed in a quiet room for 30 min and then were put in a Plexiglas cage with mesh metal flooring and allowed to acclimatise for 30 min before testing. A series of calibrated von Frey filaments (Stoelting, Wood Dale, IL) with incremental stiffness were applied perpendicularly to the paw with sufficient force to cause slight bending and held 2-3 s. This process was repeated at each level of stiffness 5 times, a few seconds apart. Paw withdrawn, licking or shaking were considered positive responses. The mechanical threshold, expressed as g, indicates the force of the von Frey filament to which the animal reacted.
Results are expressed as mean±SEM. […] Analysis of variance (ANOVA) tests were conducted and followed by the Bonferroni post hoc test. Differences were determined to be significant at P<0.05.

[4] = test system: paclitaxel-induced CIPN in C57BL/6J mice; experiment: Prevention of paclitaxel-induced CIPN pain, mechanical allodynia (von Frey test); conditions: for mechanical allodynia score, mean±SEM: day 10, PS 8% ointment to hind paws started 2 days before first paclitaxel (8 mg/kg ip every other day x4)
Protocol: In the prevention study depicted in FIG. 8, three of the four study groups of mice were treated with paclitaxel (one injection every other day for a total of four) while the fourth group received the solvent alone, serving as control.

[5] = test system: paclitaxel-induced CIPN in C57/BL/6J mice; experiment: Comparison with sulindac, lidocaine and pregabalin in paclitaxel CIPN, mechanical allodynia (PWT, von Frey)
[6] = PS and metabolites in proximal and distal half of the sciatic nerve of mice with paclitaxel-induced PN; assay type: in vivo, mouse; conditions: for concentration at 30 min: mean ± SEM
Protocol: In a separate experiment we studied 8 mice with paclitaxel-induced PN treated with PS 8% ointment 3×/d for 2 wks. Mice were euthanized as above 30 minutes after the last dose of PS. From these mice we harvested both sciatic nerves dividing each into proximal and distal halves, and combined the corresponding halves of every two animals for assay of drug levels.

[7] = Pharmacokinetics and biodistribution of topical PS in normal mice; assay type: in vivo, mouse; conditions: for Cmax: read-out: Cmax, μM mean ± SEM
Protocol: PS 8% ointment was applied topically to each hind paw (50 μl per paw) with gentle rubbing. At 0.5, 1, 3, 5, 12, 18, and 24 h, mice (n=4-5 mice/time point) were euthanized with CO2 inhalation. Blood was drawn immediately after death. Tissues, including paw skin, paw muscle, leg muscle, the sciatic nerve and lumbar DRG bilaterally were dissected quickly, immediately frozen in liquid nitrogen and stored at −80° C. until analyzed.

[8] = test system: CIPN model; conditions: Hidaka et al. (2009); cited from earlier work
[9] = test system: oxaliplatin-induced CIPN in C57BL/6J mice; experiment: Treatment of oxaliplatin-induced CIPN, mechanical allodynia (von Frey test); assay type: in vivo, mouse
Source text: (§1) Food and water were available ad libitum.
(§2) Results are expressed as mean±SEM. […] Non-compartmental analyses were employed.

[10] = test system: vincristine-induced CIPN in C57BL/6J mice; experiment: Treatment of vincristine-induced CIPN, mechanical allodynia (von Frey test); assay type: in vivo, mouse
Source text: as §1, §2

[11] = test system: paclitaxel-induced CIPN in C57/BL mice; experiment: Treatment of established neuropathic pain in paclitaxel mouse model of CIPN, PWT (von Frey); assay type: in vivo; conditions: day 10, about 30 min after last application; paclitaxel 10 mg/kg ip daily x3; PS 8% hydrogel to both hind paws 3 times a day for 10 days, started 2 days after last paclitaxel
Protocol: The first doses were administered 2 days after the last administration of paclitaxel.
The data is expressed as percent change from the respective baseline value.

[12] = test system: mice; experiment: Safety of PS ointment during the CIPN treatment studies; assay type: in vivo, mouse; conditions: PS ointment thrice daily to hind paws for up to 22 days
Source text: This finding is in keeping with the known safety profile of PS.

[13] = target: COX-1 (Homo sapiens, UniProt P23219); conditions: cited from earlier work
[14] = target: T1, COX-2 (Homo sapiens, UniProt P35354); conditions: cited from earlier work
T1 sequence (P35354 18-604): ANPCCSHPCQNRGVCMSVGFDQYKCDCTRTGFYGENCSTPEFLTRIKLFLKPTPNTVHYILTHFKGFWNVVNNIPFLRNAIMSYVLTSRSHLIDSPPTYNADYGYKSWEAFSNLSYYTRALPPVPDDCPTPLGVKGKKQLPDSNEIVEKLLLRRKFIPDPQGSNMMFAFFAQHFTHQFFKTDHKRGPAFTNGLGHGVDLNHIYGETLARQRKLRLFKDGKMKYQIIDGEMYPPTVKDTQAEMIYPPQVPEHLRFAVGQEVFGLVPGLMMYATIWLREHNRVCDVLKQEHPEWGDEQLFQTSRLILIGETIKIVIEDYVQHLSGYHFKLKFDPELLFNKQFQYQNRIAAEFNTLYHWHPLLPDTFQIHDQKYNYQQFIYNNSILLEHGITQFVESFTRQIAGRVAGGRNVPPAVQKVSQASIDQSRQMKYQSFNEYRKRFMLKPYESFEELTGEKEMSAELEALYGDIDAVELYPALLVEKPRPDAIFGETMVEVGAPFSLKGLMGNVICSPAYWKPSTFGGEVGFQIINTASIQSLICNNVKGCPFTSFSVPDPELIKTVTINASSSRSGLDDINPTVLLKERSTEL

[15] = mouse, in vivo, Distal half of the sciatic nerve
[16] = mouse, in vivo, Proximal half of the sciatic nerve, μM
[17] = 30 min after last dose, PS 8% ointment 3x/d for 2 wks
[18] = DRG (dorsal root ganglia), normal mice, PS 8% ointment topically 50 μl per hind paw
[19] = SN (sciatic nerve), normal mice, PS 8% ointment topically 50 μl per hind paw
[20] = leg muscle, normal mice, PS 8% ointment topically 50 μl per hind paw
[21] = paw muscle, normal mice, PS 8% ointment topically 50 μl per hind paw
[22] = paw skin, normal mice, PS 8% ointment topically 50 μl per hind paw
[23] = 30 min after last dose, mice with paclitaxel-induced PN, PS 8% ointment 3x/d for 2 wks

Chain of COX-1 (P23219 24-599): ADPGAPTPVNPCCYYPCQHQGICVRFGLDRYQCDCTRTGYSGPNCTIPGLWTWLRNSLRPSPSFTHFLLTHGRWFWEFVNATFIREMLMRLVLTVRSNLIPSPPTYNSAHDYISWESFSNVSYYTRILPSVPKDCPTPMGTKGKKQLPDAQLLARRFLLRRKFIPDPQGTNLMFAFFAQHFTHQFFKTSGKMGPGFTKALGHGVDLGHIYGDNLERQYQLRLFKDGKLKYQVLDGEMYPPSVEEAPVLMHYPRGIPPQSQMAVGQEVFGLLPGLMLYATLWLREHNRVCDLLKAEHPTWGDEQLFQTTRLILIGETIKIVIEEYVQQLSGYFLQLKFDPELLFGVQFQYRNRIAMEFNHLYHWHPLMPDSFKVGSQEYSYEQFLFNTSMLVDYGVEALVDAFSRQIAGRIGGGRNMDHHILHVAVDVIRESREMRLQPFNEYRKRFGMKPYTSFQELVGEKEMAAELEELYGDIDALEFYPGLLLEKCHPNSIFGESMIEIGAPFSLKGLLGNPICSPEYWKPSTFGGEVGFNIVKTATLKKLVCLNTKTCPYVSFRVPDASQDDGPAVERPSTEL

cold allodynia score (acetone test), Mean±SEM ([2]; after paclitaxel treatment (4.5±0.24 sec before)): 7.1 ± 0.4 s
reduction of mechanical allodynia scores by the chemotherapeutic ([3]; paclitaxel administered over 12 days, vs baseline): ~85%
mechanical allodynia score lower than solvent control ([4]; day 10, paclitaxel group vs control): 53%
mechanical allodynia score, mean±SEM ([5]; day 0, CIPN fully established after paclitaxel (1.83±0.14 g before paclitaxel)): 0.55 ± 0.05 g
Compound: CC(=O)O[C@H]1C(=O)[C@@]2(C)[C@H]([C@H](OC(=O)c3ccccc3)[C@]3(O)C[C@H](OC(=O)[C@H](O)[C@@H](NC(=O)c4ccccc4)c4ccccc4)C(C)=C1C3(C)C)[C@]1(OC(C)=O)CO[C@@H]1C[C@@H]2O [Paclitaxel, paclitaxel, reference compound]
PWT, gm Mean ± SEM [1]: 0.3 ± 0.01 gm
mechanical allodynia score, mean±SEM [4]: 0.7 ± 0.17 g

Fold difference (distal vs proximal half of sciatic nerve) ([6]; mouse, in vivo, 30 min): 4.5-8.5
concentration at 30 min [6, 15]: 3.5 ± 1 µM
concentration at 30 min [6, 16]: 0 µM
Compound: CSc1ccc(/C=C2/C(C)=C(CC(=O)O)c3cc(F)ccc32)cc1 [Sulindac sulfide, sulindac sulfide]

Compound: CC1=C(CC(=O)O)c2cc(F)ccc2/C1=C\c1ccc(S(C)(=O)=O)cc1 [Sulindac sulfone, sulindac sulfone]
Distal half of the sciatic nerve, mean ± SEM ([6]; mouse, in vivo): 0.9 ± 0.2 µM
Proximal half of the sciatic nerve, μM, mean ± SEM ([6]; mouse, in vivo): 0.2 ± 0.08 µM

Compound: CC1=C(CC(=O)O)c2cc(F)ccc2/C1=C\c1ccc([S+](C)[O-])cc1 (stereo not drawn) [Sulindac, sulindac, reference compound]
sulindac levels relative to those of PS ([7]; all tissues except the sciatic nerve (higher) and DRG (equal), topical PS 8% ointment): around 25%
Fold difference (distal vs proximal half of sciatic nerve) [6, 17]: 8.5
concentration at 30 min [6, 15]: 3.4 ± 1.1 µM
concentration at 30 min [6, 16]: 0.4 ± 0.03 µM

Compound: CCN(CC)CC(=O)Nc1c(C)cccc1C [lidocaine, reference compound]
PWT, g Mean ± SEM ([5]; 5% lidocaine cream applied once to both hind paws 30 minutes before measurement): 1.48 ± 0.12 g

Compound: CC(C(=O)O)c1ccc(CC2CCCC2=O)cc1 (stereo not drawn) [loxoprofen sodium]
reducing pain signalling in CIPN model [8]: ineffective

Compound: O=C1[O][Pt]2([NH][C@@H]3CCCC[C@H]3[NH]2)[O]C1=O [oxaliplatin]
reduction of allodynia score by the chemotherapeutic ([9]; at day 0, two study groups respectively): 65% and 56%

mechanical allodynia score, mean±SEM ([10]; day 0, after vincristine, all three groups): 0.7 ± 0.07 g
reduction of mechanical allodynia score by the chemotherapeutic ([10]; day -7 vs day 0, three vincristine groups): 61%-65%
Compound: CC[C@]1(O)C[C@H]2CN(CCc3c([nH]c4ccccc34)[C@@](C(=O)OC)(c3cc4c(cc3OC)N(C=O)[C@H]3[C@@](O)(C(=O)OC)[C@H](OC(C)=O)[C@]5(CC)C=CCN6CC[C@]43[C@@H]65)C2)C1 [vincristine, reference compound]

Compound: phosphosulindac [PS]
PWT, gm Mean ± SEM [1]: 0.4 ± 0.01 gm
PWT, % baseline Mean ± SEM [11]: 102.55 ± 4.92 % baseline
increase of allodynia score compared to day 0 ([10]; PS treatment for 16 days): 114%
mechanical allodynia score, mean±SEM ([10]; day 16, PS 8% ointment to hind paws 3x/day (vincristine alone group: no topical treatment)): 1.5 ± 0.09 g
mechanical allodynia score, mean±SEM ([9]; after PS 8% ointment 3x/day (day 22) vs day -15 baseline): 1.8 ± 0.09 g
AUC0-24 h [7, 18]: 4.5 µM·h
Tmax [7, 18]: 18 h
Cmax [7, 18]: 0.3 ± 0.1 µM
AUC0-24 h [7, 19]: 12.0 µM·h
T1/2, h [7, 19]: 57.4 h
Tmax [7, 19]: 0.5 h
Cmax [7, 19]: 0.9 ± 0.1 µM
presence in the systemic circulation ([7]; blood after topical PS 8% ointment, limit of quantitation 0.1 μM for PS): no PS was detected
AUC0-24 h [7, 20]: 171.6 µM·h
T1/2, h [7, 20]: 20.6 h
Tmax [7, 20]: 0.5 h
Cmax [7, 20]: 35 ± 3.6 µM
AUC0-24 h [7, 21]: 411.2 µM·h
T1/2, h [7, 21]: 11.4 h
Tmax [7, 21]: 0.5 h
Cmax [7, 21]: 102 ± 4.6 µM
AUC0-24 h, μM · h [7, 22]: 1,609.8 μM · h
T1/2, h [7, 22]: 16.1 h
Tmax [7, 22]: 0.5 h
Cmax [7, 22]: 195 ± 5.3 µM
t1/2 of the skin and the muscles ([7]; range over paw skin, paw muscle, leg muscle, topical PS 8% ointment): 11.4 to 20.6 h
Fold difference (distal vs proximal half of sciatic nerve) [6, 17]: 18.5 and 18.9
Distal half of the sciatic nerve, mean ± SEM [6, 23]: 17 ± 5.1 µM
Proximal half of the sciatic nerve, μM, mean ± SEM [6, 23]: 0.9 ± 0.3 µM
cold allodynia score (acetone test), Mean±SEM ([2]; PS 5% for 15 days after induction of CIPN, day 15, vehicle 9.3±0.7): 3.1 ± 0.4 s
topical or systemic side effects [12]: no topical or systemic side effects
inhibition of COX-1 expression [13]: does not inhibit
inhibition of COX-2 expression [14]: does not inhibit
mechanical allodynia score, mean±SEM ([3]; day 0 (initiation of topical treatment, CIPN established)): 0.79 ± 0.08 g
mechanical allodynia score, mean±SEM ([3]; day 5, PS 8% ointment to hind paws 3x/day): 1.17 ± 0.07 g
mechanical allodynia score, mean±SEM ([3]; day 16, PS 8% ointment to hind paws 3x/day (paclitaxel only group: no topical treatment)): 2.49 ± 0.18 g
topical or systemic side effects ([4]; PS ointment, prevention study): no topical or systemic side effects
mechanical allodynia score, mean±SEM [4]: 1.2 ± 0.15 g
PWT, g Mean ± SEM ([5]; PS 1.2% to both hind paws 3 times a day from day 0, measured day 14): 0.98 ± 0.06 g
PWT, g Mean ± SEM ([5]; PS hydrogel 5% to both hind paws 3 times a day from day 0, measured day 14): 1.24 ± 0.07 g

From US12295964B2, “Treating pain associated with chemotherapy-induced peripheral neuropathy” (MEDICON PHARMACEUTICALS, INC., priority 2021, dated 2025)
